Data published in patent US20210330611A1, “THERAPY FOR NEUROLOGICAL DISEASES/DISORDERS” (priority 2020, published 2021).
Read-outs that look alike come from different tables or passages of the source.

Experiments:
[1] = test system: fibrin-induced microglia activation; test: Image-based assay of fibrin-induced microglia activation (HTS and dose response); format: cell-based, rat
[2] = biological target: T1, GGT (Mus musculus, UniProt Q60928); test: GGT activity assay in fibrin-stimulated BMDMs (enzymatic kit, ProteoGREEN-gGlu probe); format: cell-based; details: FIG. 6c, FIG. 13A, B
T1 construct: GGT activity in BMDMs left unstimulated or stimulated with fibrin after acivicin or vehicle control treatment; endogenous in cells; host or cells: mouse bone marrow-derived macrophages (BMDMs), fibrin-stimulated
Method: GGT activity assay. GGT activity was measured using the MaxDiscovery gamma-Glutamyl Transferase (GGT) Enzymatic Assay Kit (Bioo Scientific) according to the manufacturer's protocol. […]. For in vivo GGT activity assay, spinal cord tissues from the onset of MOG35-55 EAE or LPS-injected substantia nigra area at 12 h were prepared. Tissues were homogenized in 0.1 M Tris-HCl and centrifuged at 13,000 g for 30 min at 4° C. The supernatant was collected and subsequently assessed for GGT activity. The absorbance at 405 nm was detected with a SpectraMax M5 microplate reader (Molecular Devices) with SoftMax Pro 5.2 software (Phoenix Technologies Ltd.). The GGT activity in IU/1 was calculated following the manufacturer's protocol by multiplying the average increase in absorbance at 405 nm over 10 min GGT activity was also measured using a fluorescent probe, ProteoGREEN-gGlu (Goryo Chemical, Hokkaido, Japan), according to the manufacturer's protocol. Cultured BMDMs were plated on 96-well, black μ-clear-bottom microtiter plates (Greiner Bio-One) pre-coated with 25 μg/ml fibrin. […] The fluorescence intensity (excitation/emission filter pairs of 488 nm/520 nm) was measured using a SpectraMax M5 microplate reader (Molecular Devices) with SoftMax Pro 5.2 software (Phoenix Technologies).

[3] = test system: primary microglia; format: cell-based, rat; details: 48 h, FIG. 12
Method: FIGS. 12A-E. Effects of acivicin on microglia, macrophage and whole blood cell numbers. a, Representative images showing morphology and density of primary microglia treated with vehicle or acivicin for 48 h stained with nuclei marker Hoechst or CellMask Red Whole Cell Stain. Quantification of the total number of microglia. Data are representative of one experiment with technical replicates (open symbols). b, Representative confocal images showing morphology and density of control- and acivicin-treated BMDMs treated for 24 h. Scale bar, 100 μm. Insets depict digitally zoomed in areas of regions of interest. Quantification of the total number of BMDMs in the field of view. […] Cell viability of single CD45^+ cells was assessed by Sytox blue live/dead nuclei stain. Quantification of percent cell viability of CD45^+ BMDMs treated with acivicin or left untreated. Data are from 2 independent experiments with n=4 mice per group (mean±s.d.). d, Quantification of complete blood count analysis of white blood cells (WBCs), red blood cells (RBC), platelets (PLT) (left) and composition of WBCs (right) of blood samples from healthy mice treated with saline or acivicin for 10 days. […] Quantification of total microglia cell numbers in healthy mice treated with acivicin or saline. […]
Image-based HTS of small molecule inhibitors of microglia activation. […] The plates were stored in PBS for readout by imaging.

[4] = test system: LPS injection in the substantia nigra; test: LPS-induced neurodegeneration in substantia nigra, TH and Iba-1 immunohistochemistry; format: in vivo, mouse
Method: Stereotactic LPS injection and drug treatment. Mice were anaesthetized with isoflurane and placed in a stereotactic apparatus (David Kopf Instruments). LPS (Sigma-Aldrich) was dissolved in endotoxin-free distilled water (HyClone) and was diluted to 1 μg/ml with PBS. LPS (2 μl of 1 μg/ml) or PBS was slowly injected (0.3 μl/min) using a 10-μl Hamilton syringe attached to a 33-G needle into the substantia nigra at coordinates (anteroposterior, 3.0 mm; mediolateral, 1.3 mm; dorsoventral, 4.7 mm from the bregma, according to Paxinos and Watson) Animals received acivicin (5 mg/kg) or saline intraperitoneally beginning 5 days before LPS injection and for 7 days after LPS injection. After 12 h of the LPS injection, the substantia nigra area was immediately collected on ice and kept at −80° C. for later analysis of GGT activity. After 7 d of the LPS injection, mice were perfused with 4% PFA, and the brains were post-fixed in 4% PFA overnight at 4° C. […] Images were acquired with all-in-one BZ-X700 fluorescence microscope. Images were quantified using NIH ImageJ (version 1.50) by blinded observers.

T1 sequence (Q60928 380-568): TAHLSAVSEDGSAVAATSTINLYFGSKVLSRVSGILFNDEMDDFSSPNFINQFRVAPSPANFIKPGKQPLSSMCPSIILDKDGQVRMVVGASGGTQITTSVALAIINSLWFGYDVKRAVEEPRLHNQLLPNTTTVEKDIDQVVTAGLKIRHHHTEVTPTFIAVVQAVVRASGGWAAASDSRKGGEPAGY
T1 sequence (Q60928 1-379): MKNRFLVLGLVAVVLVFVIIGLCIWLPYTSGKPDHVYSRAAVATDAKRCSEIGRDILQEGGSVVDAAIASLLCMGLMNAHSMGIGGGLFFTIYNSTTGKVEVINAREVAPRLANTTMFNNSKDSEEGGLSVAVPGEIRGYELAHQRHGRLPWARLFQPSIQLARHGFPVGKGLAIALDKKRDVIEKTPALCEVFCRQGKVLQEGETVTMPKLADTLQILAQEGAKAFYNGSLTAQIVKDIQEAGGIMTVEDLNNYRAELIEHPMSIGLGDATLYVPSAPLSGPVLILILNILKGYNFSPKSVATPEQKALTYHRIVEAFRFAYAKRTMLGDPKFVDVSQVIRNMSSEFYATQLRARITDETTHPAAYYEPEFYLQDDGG

SMILES: N[C@H](C(=O)O)[C@@H]1CC(Cl)=NO1 [Acivicin, (2S)-2-amino-2-[(5S)-3-chloro-4,5-dihydro-1,2-oxazol-5-yl] acetic acid]
- IC50 ([1]; Rattus norvegicus, Microglia, 48 h, Table 1, dose response 0.001-20 μM, triplicates, primary rat microglia, 48 h, read-out: Fibrin IC50): 2 µM
- IC50 ([1]; Rattus norvegicus, Microglia, Table 7, read-out: fib_IC50): 0.57 µM
- IC50 ([1]; Rattus norvegicus, Microglia, dose response, fibrin-induced microglia activation, read-out: Fibrin IC50): 2 µM
- IC50 ([1]; Rattus norvegicus, Microglia, fibrin-induced microglia activation, dose response, read-out: Fibrin IC50 (uM) (Suppl. Table 7)): 2 µM
- inhibition at 10 µM ([1]; Rattus norvegicus, Microglia, primary microglia HTS, fibrin stimulation, increased cell size (>800 μm^2) as marker of activation, read-out: Fibrin % inhibition): 90%
- fibrin-induced microglial activation ([1]; dose-dependent, FIG. 6a): inhibited
- fibrin-induced GGT activity in BMDMs [2]: inhibited
- microglia cell number in vitro [3]: did not affect
- microglial activation (Iba-1) ([4]; 7 d after LPS, FIG. 15c): decreased
- dopaminergic neuronal survival (TH) ([4]; mouse, in vivo): improved
